Data published in patent US10961202B2, “Bis-benzimidazole compounds and methods of using the same” (THE SCRIPPS RESEARCH INSTITUTE, priority 2017, dated 2021).
Where two headings read alike, the source gives them in different places.

How the values were obtained:
r(CUG)12-MBNL1 complex = assay: Inhibition of the r(CUG)12-MBNL1 complex measured by TR-FRET; assay type: biochemical; details: 80 nM RNA, 60 nM MBNL1-His6
[1] = test system: MBNL1 exon 5 inclusion in DM1 myotubes; assay: Myotube splicing rescue assay (MBNL1 exon 5 inclusion); assay type: cell-based, human; details: 48-hour incubation
HSALR strain 20b mice = assay: DM1 mouse efficacy study: RT-PCR of MBNL1-dependent splicing targets in gastrocnemius; assay type: in vivo; details: sc, subcutaneous
[2] = 7.5 mg/kg qod 8 doses, read-out: Clcn1 exon 7a splicing rescue %
[3] = 7.5 mg/kg qod 8 doses, read-out: Mbnl1 exon 5 splicing rescue %
[4] = 7.5 mg/kg qod 8 doses, read-out: Serca1 exon 22 splicing rescue %
[5] = 7.5 mg/kg qod 8 doses, read-out: Zasp exon 11 splicing rescue %
[6] = 7.5 mg/kg qod 5 doses, read-out: Clcn1 exon 7a splicing rescue %
[7] = 7.5 mg/kg qod 5 doses, read-out: Mbnl1 exon 5 splicing rescue %
[8] = 7.5 mg/kg qod 5 doses, read-out: Serca1 exon 22 splicing rescue %

Row | Compound | IC50 (r(CUG)12-MBNL1 complex; Table L) | IC50 (r(CUG)12-MBNL1 complex; Table M) | MBNL1 % splicing rescue at 1 μM [1] | MBNL1 % splicing rescue at 10 μM [1] | further results
1 | CN(C)CCCOc1ccc2nc(-c3ccc(-c4nc5ccc(OCCCN(C)C)cc5[nH]4)cc3)[nH]c2c1 [Compound 58, 3,3′-((2,2′-(1,4-phenylene)bis(1H-benzo[d]imidazole-6,2-diyl))bis(oxy))bis(N,N-dimethylpropan-1-amine)] | 19.8 µM | – | 11.0% | 79.1% | percent splicing rescue at 7.5 mg/kg (HSALR strain 20b mice; [2]): 68.3%; percent splicing rescue at 7.5 mg/kg (HSALR strain 20b mice; [3]): 80.2%; percent splicing rescue at 7.5 mg/kg (HSALR strain 20b mice; [4]): 90.5%; percent splicing rescue at 7.5 mg/kg (HSALR strain 20b mice; [5]): 102%
2 | CN(C)CCCSc1ccc2nc(-c3ccc(-c4nc5ccc(SCCCN(C)C)cc5[nH]4)cc3)[nH]c2c1 [Compound 60, 3,3′-((2,2′-(1,4-phenylene)bis(1H-benzo[d]imidazole-6,2-diyl))bis(sulfanediyl))bis(N,N-dimethylpropan-1-amine)] | 40 µM | – | 18.9% | 80.9% | percent splicing rescue at 7.5 mg/kg (HSALR strain 20b mice; [6]): 87.7%; percent splicing rescue at 7.5 mg/kg (HSALR strain 20b mice; [7]): 95.3%; percent splicing rescue at 7.5 mg/kg (HSALR strain 20b mice; [8]): 86%; percent splicing rescue at 7.5 mg/kg (HSALR strain 20b mice; 7.5 mg/kg qod 5 doses, read-out: Zasp exon 11 splicing rescue %): 88.3%
3 | Nc1ccc2nc(-c3ccc(-c4nc5ccc(NC6=NCCN6C6=NCCN6)cc5[nH]4)cc3)[nH]c2c1 [Compound 75, 2-(4-(6-amino-1H-benzo[d]imidazol-2-yl)phenyl)-N-(4,4′,5,5′-tetrahydro-1H-[1,2′-biimidazol]-2-yl)-1H-benzo[d]imidazol-6-amine] | 3.2 µM | – | – | 0.0% | percent splicing rescue at 30 mg/kg (HSALR strain 20b mice; 30 mg/kg qd 7 doses, read-out: Clcn1 exon 7a splicing rescue %): 39.4%; percent splicing rescue at 30 mg/kg (HSALR strain 20b mice; 30 mg/kg qd 7 doses, read-out: Mbnl1 exon 5 splicing rescue %): 93.9%; percent splicing rescue at 30 mg/kg (HSALR strain 20b mice; 30 mg/kg qd 7 doses, read-out: Serca1 exon 22 splicing rescue %): 50%; percent splicing rescue at 30 mg/kg (HSALR strain 20b mice; 30 mg/kg qd 7 doses, read-out: Zasp exon 11 splicing rescue %): 95.6%
4 | CN(C)CCNC(=O)c1ccc(-c2nc3cc(-c4ccc5[nH]c(-c6ccc(C(=O)NCCN(C)C)cc6)nc5c4)ccc3[nH]2)cc1 [Compound 108, 4,4′-(1H,1′H-[5,5′-bibenzo[d]imidazole]-2,2′-diyl)bis(N-(2-(dimethylamino)ethyl)benzamide)] | 13 µM | – | 0.0% | 63.4% | percent splicing rescue at 30 mg/kg (HSALR strain 20b mice; 30 mg/kg qod 8 doses, read-out: Clcn1 exon 7a splicing rescue %): 32.5%; percent splicing rescue at 30 mg/kg (HSALR strain 20b mice; 30 mg/kg qod 8 doses, read-out: Mbnl1 exon 5 splicing rescue %): 57.4%; percent splicing rescue at 30 mg/kg (HSALR strain 20b mice; 30 mg/kg qod 8 doses, read-out: Serca1 exon 22 splicing rescue %): 59.1%; percent splicing rescue at 30 mg/kg (HSALR strain 20b mice; 30 mg/kg qod 8 doses, read-out: Zasp exon 11 splicing rescue %): 50.1%
5 | CN(C)CCCOc1ccc(-c2nc3cc(-c4ccc5[nH]c(-c6ccc(OCCCN(C)C)cc6)nc5c4)ccc3[nH]2)cc1 [Compound 152] | 10.7 µM | – | 85.4% | 79.8% | percent splicing rescue at 7.5 mg/kg (HSALR strain 20b mice; [3]): 40.6%; percent splicing rescue at 7.5 mg/kg (HSALR strain 20b mice; [4]): -19.8%; percent splicing rescue at 7.5 mg/kg (HSALR strain 20b mice; [5]): 46.1%
6 | CN(C)CCOc1ccc(-c2nc3cc(-c4ccc5[nH]c(-c6ccc(OCCN(C)C)cc6)nc5c4)ccc3[nH]2)cc1 [Compound 153] | 29 µM | – | 82.1% | 106.1% | percent splicing rescue at 7.5 mg/kg (HSALR strain 20b mice; [2]): 48.4%; percent splicing rescue at 7.5 mg/kg (HSALR strain 20b mice; [3]): 40.8%; percent splicing rescue at 7.5 mg/kg (HSALR strain 20b mice; [4]): 34%; percent splicing rescue at 7.5 mg/kg (HSALR strain 20b mice; [5]): 59.7%

Second part, led by results:

Row | IC50 (r(CUG)12-MBNL1 complex; Table L) | IC50 (r(CUG)12-MBNL1 complex; Table M) | Compound | MBNL1 % splicing rescue at 1 μM [1] | MBNL1 % splicing rescue at 10 μM [1] | further results
7 | – | 6.45 µM | CN(C)CCCOc1ccc(-c2nc3cc(-c4ccc5[nH]c(-c6ccc(C(=O)NCCN(C)C)cc6)nc5c4)ccc3[nH]2)cc1 [Compound 346] | 79.9% | 74.8% | percent splicing rescue at 7.5 mg/kg (HSALR strain 20b mice; [6]): 105%; percent splicing rescue at 7.5 mg/kg (HSALR strain 20b mice; [7]): 11.8%; percent splicing rescue at 7.5 mg/kg (HSALR strain 20b mice; [8]): 22.3%
8 | – | 3.03 µM | O=C(NCCN1CCN(CCNC(=O)c2ccc3nc(-c4ccc(-c5nc6ccc(C(=O)NCCN7CCCCC7)cc6[nH]5)cc4)[nH]c3c2)CC1)NCCN1CCN(CCNC(=O)c2ccc3nc(-c4ccc(-c5nc6ccc(C(=O)NCCN7CCCCC7)cc6[nH]5)cc4)[nH]c3c2)CC1 [Compound 406, N,N′-((((carbonylbis(azanediyl))bis(ethane-2,1-diyl))bis(piperazine-4,1-diyl))bis(ethane-2,1-diyl))bis(2-(4-(6-((2-(piperidin-1-yl)ethyl)carbamoyl)-1H-benzo[d]imidazol-2-yl)phenyl)-1H-benzo[d]imidazole-6-carboxamide)] | 9.4% | 54.3% | –
9 | – | 0.51 µM | CN(C)CCNC(=O)c1ccc(-c2nc3cc(-c4ccc5[nH]c(-c6ccc(C(=O)NCCN(C)CCCCc7cn(CCCNC(=O)CCC(=O)NCCCn8cc(CCCCN(C)CCNC(=O)c9ccc(-c%10nc%11cc(-c%12ccc%13[nH]c(-c%14ccc(C(=O)NCCN(C)C)cc%14)nc%13c%12)ccc%11[nH]%10)cc9)nn8)nn7)cc6)nc5c4)ccc3[nH]2)cc1 [Compound 408] | 3.9% | – | –
10 | – | 20.5 µM | CN(C)CCCOc1ccc(-c2nc3cc(-c4ccc5[nH]c(-c6ccc(C(=O)NCCCn7cc(COCCOCCN(C)C(=O)c8ccc(-c9nc%10cc(-c%11ccc%12[nH]c(-c%13ccc(C(=O)NCCN(C)C)cc%13)nc%12c%11)ccc%10[nH]9)cc8)nn7)cc6)nc5c4)ccc3[nH]2)cc1 [Compound 458] | – | – | MBNL1 % splicing rescue at 5 μM [1]: −14.7%
11 | – | 27.3 µM | CN(C)CCCOc1ccc(-c2nc3cc(-c4ccc5[nH]c(-c6ccc(C(=O)NCCCn7cc(COCCOCCOCCOCCN(C)C(=O)c8ccc(-c9nc%10cc(-c%11ccc%12[nH]c(-c%13ccc(C(=O)NCCN(C)C)cc%13)nc%12c%11)ccc%10[nH]9)cc8)nn7)cc6)nc5c4)ccc3[nH]2)cc1 [Compound 459] | – | – | MBNL1 % splicing rescue at 5 μM [1]: −2.6%
12 | – | 1.3 µM | C[C@@H](NC(=O)CNCCCn1cc(CCCCN(C)CCNC(=O)c2ccc(-c3nc4cc(-c5ccc6[nH]c(-c7ccc(C(=O)NCCN(C)C)cc7)nc6c5)ccc4[nH]3)cc2)nn1)C(=O)N[C@H](C)C(=O)N[C@H](C)C(=O)N[C@H](C)C(=O)N(CCCn1cc(CCCCN(C)CCNC(=O)c2ccc(-c3nc4cc(-c5ccc6[nH]c(-c7ccc(C(=O)NCCN(C)C)cc7)nc6c5)ccc4[nH]3)cc2)nn1)CC(N)=O [Compound 460] | – | – | MBNL1 % splicing rescue at 5 μM [1]: −21.0%
13 | – | 2.5 µM | C[C@@H](NC(=O)CNCCCn1cc(CCCCN(C)CCNC(=O)c2ccc(-c3nc4cc(-c5ccc6[nH]c(-c7ccc(OCCCN(C)C)cc7)nc6c5)ccc4[nH]3)cc2)nn1)C(=O)N[C@H](C)C(=O)N[C@H](C)C(=O)N[C@H](C)C(=O)N(CCCn1cc(CCCCN(C)CCNC(=O)c2ccc(-c3nc4cc(-c5ccc6[nH]c(-c7ccc(OCCCN(C)C)cc7)nc6c5)ccc4[nH]3)cc2)nn1)CC(N)=O [Compound 461] | – | −35.5% | –
